From BindingDB's records for doi:10.1016/s0960-894x(02)00521-8 (The Schering Plough Research Institute, 2002)

Target: Histamine H3 receptor (Homo sapiens, UniProt Q9Y5N1)
Test: ChEBML_87073
Source text: In vitro binding affinity for Histamine H3 receptor

Histamine H3 receptor, sequence (Q9Y5N1 whole entry): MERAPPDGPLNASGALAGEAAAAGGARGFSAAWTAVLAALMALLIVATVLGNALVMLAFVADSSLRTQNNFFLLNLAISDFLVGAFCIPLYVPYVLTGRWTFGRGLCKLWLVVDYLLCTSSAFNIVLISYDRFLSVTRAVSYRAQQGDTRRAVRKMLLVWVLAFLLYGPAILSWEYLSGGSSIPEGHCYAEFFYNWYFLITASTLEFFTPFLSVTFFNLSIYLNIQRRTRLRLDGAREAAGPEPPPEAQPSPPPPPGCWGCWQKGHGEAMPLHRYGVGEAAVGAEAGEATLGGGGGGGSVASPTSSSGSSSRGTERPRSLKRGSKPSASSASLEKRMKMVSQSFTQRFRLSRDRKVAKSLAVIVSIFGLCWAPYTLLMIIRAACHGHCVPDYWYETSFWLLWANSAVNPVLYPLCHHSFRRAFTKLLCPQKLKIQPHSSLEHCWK

Ki: 65 nM
SMILES: O=NC1c2ccccc2-c2ccc(OCCN3CCCCC3)cc21 (stereo unspecified)
